In patent US20230183176A1, “PROCESS OF MAKING N,N'-DIACETYL-L-CYSTINE” (Conopco, Inc., d/b/a UNILEVER, priority 2020, published 2023):

Columns and labels:
[1] = organic solvents such as alcohols, ethers, esters, ketones; cited from earlier work
skin cells = assay: potentiating glutathione synthesis within skin cells; type: cell-based; details: compared with cystine
[2] = solubility of NDAC compared with cystine; type: physicochemical

SMILES | solubility in organic solvents [1] | performance for potentiating glutathione synthesis within skin cells (skin cells) | solubility relative to cystine [2]
N[C@@H](CSSC[C@H](N)C(=O)O)C(=O)O [cystine, L-Cystine] | practically insoluble |  | 
CC(=O)N[C@@H](CSSC[C@H](NC(C)=O)C(=O)O)C(=O)O [NDAC, N,N′-diacetyl-L-Cystine] |  | comparable to that of cystine | more soluble
